Measurements: patent publication US9120785B2, “Pyridyl aminopyridines as Syk inhibitors” (Merck Sharp & Dohme Corp., priority 2011, dated 2015)
Read-outs that look alike come from different tables or passages of the source.

What was measured:
[1] = dosed intranasally, phase I/II study, allergic rhinitis; cited from earlier work
[2] = phase II clinical trial, allergic rhinitis; cited from earlier work
[3] = molecular target: recombinant human GST-Syk (Homo sapiens (Human), UniProt P43405); experiment: Homogeneous Time-Resolved Fluorescence (HTRF) assay for the recombinant human Syk enzyme; type: biochemical; details: recombinant human GST-Syk 5 pM, ATP 25 μM
In short: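 GST-hSyk (5 pM final) preincubated 10 min at room temperature with inhibitor (0.1% DMSO) in 15 mM Tris-HCl pH 7.5, 0.01% Tween 20, 2 mM DTT. Reaction with 250 nM biotinylated peptide, 5 mM Mg, 25 μM ATP for 45 min, room temperature. Quenched with EDTA; Eu-anti-phosphotyrosine/SA-APC HTRF read after 30 min.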

For `Oc1cccc(Nc2ncc(F)c(Nc3cccc(O)c3)n2)c1` [Example R112], the clinical safety [1] is given as “safe across a range of indicators”, the “decrease in PGD2” value [1] is given as “statistically significant decrease” and the efficacy versus placebo [2] is given as “lack of efficacy versus placebo”.
For “butyl trans-4-[1-hydroxy-1-(5-{6-[(4-methoxypyridin-2-yl)amino]-4-methylpyridin-2-yl}-1,3-thiazol-2-yl)ethyl]cyclohexanecarboxylate [Example 14-2]”, the IC50 ([3]; 10-dose titration, read-out: rhSyk (nM) IC50) was 219 nM and the IC50 ([3]; class symbols, read-out: rhSyk activity (IC50)) was 100 to 1000 nM.
